Measured values: patent publication US8802597B2, “Herbicidal pyrimidines” (E I du Pont de Nemours and Company, priority 2003, dated 2014)
Read-outs that look alike come from different tables or passages of the source.

Experiments:
Assay in all cases: Test C pre/postemergence
Assay type in all cases: in vivo
kochia (Kochia scoparia) = settings: Bassia scoparia; for pest or weed control at 62 g/ha: 62 g ai/ha; for pest or weed control at 125 g/ha: 125 g ai/ha; for pest or weed control at 250 g/ha: 250 g ai/ha; for pest or weed control at 500 g/ha: 500 g ai/ha
In short: (§1)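 Seeds sown and sprayed preemergence with test compound in non-phytotoxic solvent containing surfactant; postemergence sprays, same formulation, went onto plants 2 to 18 cm tall (1- to 4-leaf stage). Plants held in greenhouse 12 to 14 days, then visually rated against untreated controls on a 0–100 scale (0 no effect, 100 complete control).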

[1] = system: lambsquarters (Chenopodium album); settings: Chenopodium album; for pest or weed control at 62 g/ha: 62 g ai/ha; for pest or weed control at 125 g/ha: 125 g ai/ha; for pest or weed control at 250 g/ha: 250 g ai/ha; for pest or weed control at 500 g/ha: 500 g ai/ha
In short: as §1

[2] = system: johnsongrass (Sorghum halepense); settings: Sorghum halepense; for pest or weed control at 62 g/ha: 62 g ai/ha; for pest or weed control at 125 g/ha: 125 g ai/ha; for pest or weed control at 250 g/ha: 250 g ai/ha; for pest or weed control at 500 g/ha: 500 g ai/ha
In short: as §1

[3] = system: eastern black nightshade (Solanum ptycanthum); settings: Solanum, pre-emergence, Preemergence, read-out: Plant response rating, Nightshade
In short: as §1

soybean (Glycine max) = settings: Glycine max; for plant injury at 62 g/ha: 62 g ai/ha; for plant injury at 125 g/ha: 125 g ai/ha; for plant injury at 250 g/ha: 250 g ai/ha; for plant injury at 500 g/ha: 500 g ai/ha
In short: as §1

[4] = system: velvetleaf (Abutilon theophrasti); settings: Abutilon theophrasti; for pest or weed control at 62 g/ha: 62 g ai/ha; for pest or weed control at 125 g/ha: 125 g ai/ha; for pest or weed control at 250 g/ha: 250 g ai/ha; for pest or weed control at 500 g/ha: 500 g ai/ha
In short: as §1

[5] = post-emergence, Postemergence, scale 0 to 100 (0 no effect, 100 complete control), read-out: Kochia plant response rating
[6] = post-emergence, Postemergence, scale 0 to 100, read-out: Plant response rating, Kochia
[7] = pre-emergence, Preemergence, scale 0 to 100, read-out: Plant response rating, Kochia
[8] = post-emergence, Postemergence, scale 0 to 100 (0 no effect, 100 complete control), read-out: Lambsquarters plant response rating
[9] = post-emergence, Postemergence, scale 0 to 100, read-out: Plant response rating, Lambsquarters
[10] = pre-emergence, Preemergence, scale 0 to 100, read-out: Plant response rating, Lambsquarters
[11] = post-emergence, Postemergence, scale 0 to 100 (0 no effect, 100 complete control), read-out: Johnsongrass plant response rating
[12] = post-emergence, Postemergence, scale 0 to 100, read-out: Plant response rating, Johnsongrass
[13] = pre-emergence, Preemergence, scale 0 to 100, read-out: Plant response rating, Johnsongrass
[14] = post-emergence, Postemergence, scale 0 to 100 (0 no effect, 100 complete control), read-out: Soybean plant response rating
[15] = post-emergence, Postemergence, scale 0 to 100, read-out: Plant response rating, Soybean
[16] = pre-emergence, Preemergence, scale 0 to 100, read-out: Plant response rating, Soybean
[17] = post-emergence, Postemergence, scale 0 to 100 (0 no effect, 100 complete control), read-out: Velvetleaf plant response rating
[18] = post-emergence, Postemergence, scale 0 to 100, read-out: Plant response rating, Velvetleaf
[19] = pre-emergence, Preemergence, scale 0 to 100, read-out: Plant response rating, Velvetleaf

CNc1nc(C2CC2)nc(C(=O)OC)c1Br [Compound 5]
pest or weed control at 62 g/ha (kochia (Kochia scoparia); [5]): 100%
pest or weed control at 125 g/ha (kochia (Kochia scoparia); [5]): 100%
pest or weed control at 250 g/ha (kochia (Kochia scoparia); [6]): 100%
pest or weed control at 500 g/ha (kochia (Kochia scoparia); [6]): 100%
pest or weed control at 62 g/ha (kochia (Kochia scoparia); pre-emergence, Preemergence, scale 0 to 100, 0 no effect, 100 complete control, read-out: Plant response rating, Kochia): 80%
pest or weed control at 125 g/ha (kochia (Kochia scoparia); [7]): 95%
pest or weed control at 250 g/ha (kochia (Kochia scoparia); [7]): 100%
pest or weed control at 500 g/ha (kochia (Kochia scoparia); [7]): 100%
pest or weed control at 62 g/ha [1, 8]: 95%
pest or weed control at 125 g/ha [1, 8]: 100%
pest or weed control at 250 g/ha [1, 9]: 100%
pest or weed control at 500 g/ha [1, 9]: 100%
pest or weed control at 62 g/ha ([1]; pre-emergence, Preemergence, scale 0 to 100, 0 no effect, 100 complete control, read-out: Plant response rating, Lambsquarters): 95%
pest or weed control at 125 g/ha [1, 10]: 95%
pest or weed control at 250 g/ha [1, 10]: 100%
pest or weed control at 500 g/ha [1, 10]: 100%
pest or weed control at 62 g/ha [2, 11]: 0%
pest or weed control at 125 g/ha [2, 11]: 40%
pest or weed control at 250 g/ha [2, 12]: 45%
pest or weed control at 500 g/ha [2, 12]: 45%
pest or weed control at 62 g/ha ([2]; pre-emergence, Preemergence, scale 0 to 100, 0 no effect, 100 complete control, read-out: Plant response rating, Johnsongrass): 5%
pest or weed control at 125 g/ha [2, 13]: 20%
pest or weed control at 250 g/ha [2, 13]: 60%
pest or weed control at 500 g/ha [2, 13]: 70%
pest or weed control at 62 g/ha ([3]; 62 g ai/ha, scale 0 to 100, 0 no effect, 100 complete control): 100%
pest or weed control at 125 g/ha ([3]; 125 g ai/ha, scale 0 to 100): 100%
pest or weed control at 250 g/ha ([3]; 250 g ai/ha, scale 0 to 100): 100%
pest or weed control at 500 g/ha ([3]; 500 g ai/ha, scale 0 to 100): 100%
plant injury at 62 g/ha (soybean (Glycine max); [14]): 95%
plant injury at 125 g/ha (soybean (Glycine max); [14]): 100%
plant injury at 250 g/ha (soybean (Glycine max); [15]): 100%
plant injury at 500 g/ha (soybean (Glycine max); [15]): 100%
plant injury at 62 g/ha (soybean (Glycine max); pre-emergence, Preemergence, scale 0 to 100, 0 no effect, 100 complete control, read-out: Plant response rating, Soybean): 85%
plant injury at 125 g/ha (soybean (Glycine max); [16]): 90%
plant injury at 250 g/ha (soybean (Glycine max); [16]): 98%
plant injury at 500 g/ha (soybean (Glycine max); [16]): 100%
pest or weed control at 62 g/ha [4, 17]: 55%
pest or weed control at 125 g/ha [4, 17]: 90%
pest or weed control at 250 g/ha [4, 18]: 90%
pest or weed control at 500 g/ha [4, 18]: 95%
pest or weed control at 62 g/ha ([4]; pre-emergence, Preemergence, scale 0 to 100, 0 no effect, 100 complete control, read-out: Plant response rating, Velvetleaf): 85%
pest or weed control at 125 g/ha [4, 19]: 85%
pest or weed control at 250 g/ha [4, 19]: 90%
pest or weed control at 500 g/ha [4, 19]: 90%
